Measurements published in ChEMBL document CHEMBL1201862, “PubChem BioAssay data set” (2004).
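Following 48 hours of exposure in 96-well plates, responses at five concentrations were used to interpolate endpoints linearly. GI50 marks 50% less growth.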 The source made the active and inactive calls. Cut-off read from the data, not from the text of the source: active = GI50 up to about 1.1 µM and inactive = higher.

Legend:
Assay in all cases: growth of human tumour cells (NCI), 48 h
DLD-1 = test system: DLD-1
DMS-114 = test system: DMS-114
DMS-273 = test system: DMS-273
HOP-18 = test system: HOP-18
KM-20L2 = test system: KM-20L2
LXFL 529 = test system: LXFL 529
RXF 631 = test system: RXF 631
SNB-78 = test system: SNB-78
XF498 = test system: XF498

Measured: GI50

COc1ccc(-c2c(N)[n+]([O-])c3cc(C)c(C)cc3[n+]2[O-])cc1OC
inactive: DLD-1 85.7 µM | DMS-114 25.5 µM | DMS-273 99.3 µM | HOP-18 28.8 µM | KM-20L2 54.3 µM | LXFL 529 58.5 µM | RXF 631 20.4 µM | SNB-78 > 100 µM | XF498 > 100 µM

[O-][n+]1c(-c2ccccc2)oc2ccccc21
inactive: DLD-1 7.82 µM | DMS-114 3.48 µM | DMS-273 12.6 µM | HOP-18 6.44 µM | KM-20L2 21.1 µM | LXFL 529 9.04 µM | RXF 631 47 µM | SNB-78 41.4 µM | XF498 35.6 µM
